In patent publication US20030158251A1, “Methods, pharmaceutical compositions and articles of manufacture for treating disorders associated with abnormal cell proliferation and apoptosis” (priority 2002, published 2003):
Where a SMILES comes first, the peptide text is derived from it. The star is where a group is joined. Cbz = O=C(OCc1ccccc1)*

Key:
p53 [1] = assay: Proteasome inhibitor block of dicoumarol-induced p53 elimination in HCT116 cells; format: cell-based, human; settings: HCT116, 4 hrs with dicoumarol; 100 micromolar MG 132 or 40 micromolar lactacystin
Protocol: FIGS. 2a-b illustrate that proteasomal degradation is responsible for the dicoumarol-induced p53 decrease in cells. […] Immunoblots were carried out as in FIG. 1.
Cell extracts were prepared by lysis of PBS-washed cells in RIPA lysis buffer [150 mM NaCl, 1% NP-40 (vol/vol), 0.5% AB-deoxycholate (DOC vol/vol), 0.1% SDS (vol/vol), 50 mM Tris-Hcl pH 8, 1 mM dithiotireitol (DTT) and 1 micogram/ml each of leupeptin, aprotinin, pepstatin (Sigma cocktail)]. The insoluble pellet was discarded and protein concentration was determined using Bradford reagent (BioRad). Equal amounts of protein were mixed with Laemmli sample buffer (4% SDS, 20% glycerol, 10% 2-mercaptoeftanol and 0.125M Tris-Hcl), heated at 95° C. for 5 min and loaded on an 8% polyacrylamide-SDS gel. Following electophoresis, proteins were transferred to cellulose nitrate 0.45 micrometer membranes (Schleicher & Schuell, Dassel, Germany). Loading equivalence and transfer efficiency were monitored by Ponceau S staining and the membranes were then incubated with appropriate antibodies to proteins of interest followed by horse-radish peroxidase conjugated anti-IgG antibodies. […]
It is well documented that p53 accumulation is determined by the rate of its proteasomal degradation (reviewed in refs. 1,2).

p53 [2] = assay: Immunoblot of p53 level in gamma irradiated normal thymocytes; format: cell-based, mouse; settings: for wild-type p53 accumulation: γ-irradiated normal thymocytes, 2 h, 200 μM dicoumarol, 5 μM radicicol or 5 μM geldanamycin
Protocol: Cell extracts were prepared after 2 h and apoptosis was determined after 5 h.

[3] = tested on: M1-t-p53 myeloid leukemic cells; assay: cells
Protocol: Cell viability was determined 23 h after culture at 32° C.
(§1) The cell lines used were: HCT116 human colon carcinoma cells, HCT116 HA-NQO1 over-expressing cells (45), p53 null HCT116 cells (Bunz, F., Dutiaux, A., Lengauer, C., Waldman, T., Zhou, S., Brown, J. P., Sedivy, J. M., Kinzler, K. W. & Vogelstein, B. (1998) Science 282, 1497-1501.), COS 1 monkey kidney cells, normal thymocytes obtained from 2.5 month old Balb/C mice and M1-t-p53 mouse myeloid leukemic cells that express a temperature-sensitive mutant p53 [Val-135] protein (Yonish-Rouach, E., Resnitzky, D., Lotem, J., Sachs, L., Kimchi, A. & Oren, M. (1991) Nature 352, 345-347).
(§2) The p53 in M1-t-p53 cells behaves like a tumor-suppressing wild-type p53 at 32° C. and like a mutant p53 at 37° C. (24). HCT116 and COS 1 cells were grown in Dulbecco's modified Eagle's medium (DMEM) supplemented with 10% fetal bovine serum (FBS), […] penicillin, and 100 µg/ml streptomycin and cultured at 37° C. in a humidified incubator with 5.6% C02. Normal thymocytes and M1-t-p53 cells were grown in DMEM supplemented with 10% heat inactivated (56° C., 30 min) horse serum and cultured at 37° C. in an incubator with 10% […].
(§3) Apoptosis in normal thymocytes was induced by gamma irradiation 4 Gy (Co^60 source 0.63 Gy/min) and in M1-t-p53 cells by culture at 32° C. The percentage of apoptotic thymocytes was determined on May-Grünwald-Giemsa-stained cytospin preparations by counting 400 cells 5 hrs post gamma-irradiation. Apoptotic cells were scored by their smaller size, condensed chromatin, and fragmented nuclei compared with non-apoptotic cells. Analysis of DNA fragmentation during apoptosis in thymocytes was performed by DNA agarose gel electophoresis as described (27). Apoptotic M1-t-p53 cells undergo secondary changes including uptake of trypan-blue (28). The percent of viable cells (non apoptotic and not stained with trypan-blue) was determined by counting 400 cells in a hemocytometer after 23 hrs at 32° C.
(§4) These cells are viable and proliferate at 37° C. when the p53 behaves like a mutant form, but undergo apoptosis at 32° C. when the p53 behaves like wild-type (3).

p53 [4] = assay: Immunoblot of p53 level in M1-t-p53 cells; format: cell-based, mouse
Protocol: Immunoblot analysis was carried out using Pab 240 monoclonal anti p53 antibody. The blots were then stripped and re-probed with anti I-kappa-B and anti beta-tubulin antibody.
Immunoblot analysis was carried out using Pab 240 monoclonal anti p53 antibody and hamster anti mouse Bcl-2. FIG. 11a is an immunoblot of cell extracts from M1-t-p53 myeloid leukemic cells cultured for 6h at 32° C. or 37° C. without or with different concentrations of radicicol. Antibodies are indicated at left. FIG. 11b is an immunoblot of cell extracts from cells cultured at 32° C. for 6 or 2 h without (−) or with (+) 1 μM radicicol. Cells were also preincubated for 4 h at 32° C. and then cultured with 1 μM radicicol or 1 μM geldanamycin (geldan.) for 2 h (2 h*).
as §1, §2
(§5) Cell extracts were prepared by lysis of PBS-washed cells in RIPA lysis buffer [150 mM NaCl, 1% NP-40 (vol/vol), 0.5% AB-deoxycholate (DOC vol/vol), 0.1% SDS (vol/vol), 50 mM Tris-Hcl pH 8, 1 mM dithiotireitol (DTT) and 1 micogram/ml each of leupeptin, aprotinin, pepstatin (Sigma cocktail)]. The insoluble pellet was discarded and protein concentration was determined using Bradford reagent (BioRad). Equal amounts of protein were mixed with Laemmli sample buffer (4% SDS, 20% glycerol, 10% 2-mercaptoeftanol and 0.125M Tris-Hcl), heated at 95° C. for 5 min and loaded on an 8% polyacrylamide-SDS gel. Following electophoresis, proteins were transferred to cellulose nitrate 0.45 micrometer membranes (Schleicher & Schuell, Dassel, Germany). Loading equivalence and transfer efficiency were monitored by Ponceau S staining and the membranes were then incubated with appropriate antibodies to proteins of interest followed by horse-radish peroxidase conjugated anti-IgG antibodies. Signals were developed using Super Signal (Pierce Poxkford, USA) at 20° C. for 5 min and the membranes were then exposed to X-ray film (Fuji Tokyo, Japan) for an appropriate time and developed. Membranes were stripped using 50 mM citric acid before using a different primary antibody. The antibodies used were; Monoclonal anti human p53 (Pab 1801) (26), monoclonal anti mouse and human p53 (Pab240), monoclonal anti I-kappa-B (Santa Cruz Biotechnology, Santa Cruz, Calif., USA), monoclonal anti beta-tubulin and anti HA (Sigma Chemical, St. Louis, Mo.).
as §4
Because interleukin 6 (IL-6) and the calcium mobilizing compound thapsigargin (TG) are known to be efficient anti-apoptotic agents in M1-t-p53 cells (3, 31), the effect of these compounds on p53 stability was also investigated. […] (FIG. 6a).

p53 [5] = assay: Immunoblot of p53 accumulation in 7-M12 myeloid leukemic cells; format: cell-based; settings: 7-M12 cells; for accumulation of p53 following γ-irradiation or doxorubicin treatment: 2 h, 100 μM dicoumarol or 5 μM radicicol
Protocol: Immunoblot analysis was carried out using PAb 240 monoclonal anti p53 antibody and rabbit anti IκB FIG. 13a is an immunoblot of extracts from 7-M12 cells which were either not treated (none), γ-irradiated at 0.4 Gy or treated with 2.1 μM doxorubicin (Dox.). […] Cell extracts were prepared after 2 h and apoptosis was determined after 5 h.

thymocytes = assay: Dexamethasone induced apoptosis in thymocytes; format: cell-based, mouse; settings: for apoptotic cells: dexamethasone treated thymocytes, from 42±3% without inhibitor
From the text: Accumulation of p53 in γ-irradiated or doxorubicin treated 7-M12 myeloid leukemic cells (28) induces expression of mdm2 and waf-1.

p53 [6] = assay: Immunoblot of p53 level in HCT116 cells treated with dicoumarol; format: cell-based, human; settings: for p53 level: HCT116 cells, 400 micromolar dicoumarol; for accumulation of p53 upon γ-irradiation: HCT116 γ-irradiated at 6 Gy, 4 hrs
Protocol: Protein levels of each lane probed were calibrated by probing with monoclonal anti beta-tubulin antibody. Dic—Dicoumarol.
as §5
Blots were stripped and re-probed with monoclonal anti beta-tubulin antibody as a control for equal protein loading in each lane.
Since it is known that irradiation cause accumulation of p53 within cells, an additional event was conducted on irradiated cells. […] As expected, p53 accumulated upon γ-irradiation (compare FIG. 1b lanes 1 and 2).

p53 [7] = assay: Immunoblot of p53 level in COS 1 cells expressing SV40 large T antigen; format: cell-based, monkey; settings: COS 1 cells gamma irradiated at 6 Gy, up to 400 micromolar, 4 hrs
Protocol: Cell extracts were prepared by lysis of PBS-washed cells in RIPA lysis buffer [150 mM NaCl, 1% NP-40 (vol/vol), 0.5% AB-deoxycholate (DOC vol/vol), 0.1% SDS (vol/vol), 50 mM Tris-Hcl pH 8, 1 mM dithiotireitol (DTT) and 1 micogram/ml each of leupeptin, aprotinin, pepstatin (Sigma cocktail)]. The insoluble pellet was discarded and protein concentration was determined using Bradford reagent (BioRad). Equal amounts of protein were mixed with Laemmli sample buffer (4% SDS, 20% glycerol, 10% 2-mercaptoeftanol and 0.125M Tris-Hcl), heated at 95° C. for 5 min and loaded on an 8% polyacrylamide-SDS gel. Following electophoresis, proteins were transferred to cellulose nitrate 0.45 micrometer membranes (Schleicher & Schuell, Dassel, Germany). Loading equivalence and transfer efficiency were monitored by Ponceau S staining and the membranes were then incubated with appropriate antibodies to proteins of interest followed by horse-radish peroxidase conjugated anti-IgG antibodies. Signals were developed using Super Signal (Pierce Poxkford, USA) at 20° C. for 5 min and the membranes were then exposed to X-ray film (Fuji Tokyo, Japan) for an appropriate time and developed. Membranes were stripped using 50 mM citric acid before using a different primary antibody. […]

normal thymocytes = assay: Apoptosis in gamma irradiated normal thymocytes; format: cell-based, mouse
From the text: as §1, §3

p53 [8] = assay: Dicoumarol-induced p53 degradation in transfected p53 null HCT116 cells; format: cell-based, human; settings: 5 h
Protocol: Antibodies used to probe and reprobe the blots are indicated at the left. Stripping and reprobing was as for FIGS. 8 and 9.
Transfection: Cells were seeded at 60% confluence in 6-well plates 16 h before transfection with the desired plasmids. Transfections were carried out by the calcium phosphate method followed by a 10% glycerol shock for 30 seconds, 7 h post transfection. The exact amount of plasmid used in each experiment is indicated in the corresponding figure legend. Whenever needed an empty vector was used to maintain a constant amount of 5 μg total DNA in each transfection mix. Cell extracts were generally prepared 24 h after transfection.
as §5, with “The antibodies used were; Monoclonal anti human p53 (Pab 1801) (26), monoclonal anti mouse and human p53 (Pab240), monoclonal anti I-kappa-B (Santa Cruz Biotechnology, Santa Cruz, Calif., USA), monoclonal anti beta-tubulin and anti HA (Sigma Chemical, St. Louis, Mo.).” left out

[9] = Mus musculus, 23 h, read-out: cell viability
[10] = 32° C., 6 hrs, 10 nanomolar TG or 50 ng/ml IL-6

CC(=O)N[C@@H](CSC(=O)[C@]1([C@@H](O)C(C)C)NC(=O)[C@H](C)[C@@H]1O)C(=O)O [lactacystin]
block of dicoumarol-induced p53 elimination (p53 [1]): completely blocked

CC(C)C[C@@H](C=O)NC(=O)[C@H](CC(C)C)NC(=O)[C@H](CC(C)C)NC(=O)OCc1ccccc1 [MG132] (Cbz-Leu-Leu-Leu-aldehyde)
block of dicoumarol-induced p53 elimination (p53 [1]): completely blocked

C[C@@H]1C[C@H]2O[C@@H]2/C=C\C=C\C(=O)Cc2c(Cl)c(O)cc(O)c2C(=O)O1 [radicicol]
wild-type p53 accumulation (p53 [2]): only a weak inhibition | suppression of wild-type p53 induced apoptosis ([3]; M1-t-p53 cells cultured at 32° C., 23 h): strongly suppressed | viability at 0.1 µM [3, 9]: 90 ± 4% | p53 level (p53 [4]; 32° C., 2 h, 1 μM, also after 4 h preincubation at 32° C.): decrease in p53 level | level of p53 in its wild-type form (p53 [4]; 32° C., 6 h incubation): strong decrease in the level of p53 | level of p53 in its mutant form (p53 [4]; 37° C., 6 h incubation): strong decrease in the level of p53 | level of Bcl-2 (p53 [4]; 6 h incubation, same conditions): no change | inhibition of p53 accumulation relative to dicoumarol (p53 [5]; 5 μM radicicol versus 100 μM dicoumarol): stronger effect | accumulation of p53 following γ-irradiation or doxorubicin treatment (p53 [5]): inhibited | apoptotic cells (thymocytes): 5±2% | suppression of dexamethasone induced apoptosis (thymocytes; thymocytes): strongly suppressed

O=c1oc2ccccc2c(O)c1Cc1c(O)c2ccccc2oc1=O [dicoumarol, 13-3′-methylene bis (4-hydroxycoumarin)]
level of beta-tubulin (p53 [6]; HCT116, same conditions as the p53 blots (specificity control)): unaffected | p53 level (p53 [6]; 90 min): significant reduction in p53 level | p53 level (p53 [6]; 180 min): almost complete elimination of p53 | accumulation of p53 upon γ-irradiation (p53 [6]; 200 micromolar): reduced | accumulation of p53 upon γ-irradiation (p53 [6]; 400 micromolar): further reduced | p53 level (p53 [7]): not reduced | induction of apoptosis (morphology and DNA fragmentation) (normal thymocytes; 4 Gy gamma irradiated thymocytes, 100 and 200 micromolar, 5 hrs, dose dependent): inhibited induction of apoptosis | inhibition of apoptosis (normal thymocytes; 4 Gy gamma irradiated thymocytes, 200 micromolar): Complete inhibition of apoptosis | induction of apoptosis (normal thymocytes; γ-irradiated normal thymocytes, 5 h, 200 μM dicoumarol or 5 μM hsp90 inhibitor): completely inhibited | level of p53 (p53 [2]; 4 Gy gamma irradiated thymocytes, 100 and 200 micromolar, 5 hrs): decrease in the level of p53 | wild-type p53 accumulation (p53 [2]): completely inhibited | cell survival compared to cells without dicoumarol ([3]; M1-t-p53 cells, 32° C., 23 hrs, 75 or 100 micromolar): increase in cell survival | viability at 75 µM ([3]; Mus musculus, read-out: cell viability): 52 ± 4% | level of I-kappa-B (p53 [4]; 32° C., 6 hrs, 100 micromolar): did not affect | p53 level (p53 [4]; 32° C., 16 hrs, 75 or 100 micromolar dicoumarol): reduced | degradation of I-kappa-B or beta-tubulin (p53 [4]; 37° C., 6 hrs, 100 micromolar): not of I-kappa-B or beta-tubulin | degradation of mutant p53 (p53 [4]; 37° C., 6 hrs, 100 micromolar): induce degradation of p53 | dicoumarol induced p53 degradation (p53 [8]; p53 null HCT116 co-transfected with p53 and LT, 300 μM): resistant to dicoumarol induced p53 degradation | dicoumarol induced p53 degradation (p53 [8]; p53 null HCT116 transfected only with p53, 300 μM): sensitive to dicoumarol induced p53 degradation | levels of Mdm-2 and LT (p53 [8]; transfected p53 null HCT116, 300 μM): not affected | accumulation of p53 following γ-irradiation or doxorubicin treatment (p53 [5]): inhibited

COC1=C2C[C@@H](C)C[C@H](OC)[C@H](O)[C@@H](C)/C=C(\C)[C@H](OC(N)=O)[C@@H](OC)/C=C\C=C(/C)C(=O)NC(=CC1=O)C2=O [geldanamycin]
viability at 0.1 µM [3, 9]: 90 ± 4% | apoptotic cells (thymocytes): 5±2%

C/C=C(/C)C(=O)O[C@H]1C(C)=C2[C@H]([C@@H]1OC(=O)CCCCCCC)[C@@](C)(OC(C)=O)C[C@H](OC(=O)CCC)[C@@]1(O)[C@H]2OC(=O)[C@@]1(C)O [TG, thapsigargin]
p53 level (p53 [4]; [10]): did not cause a reduction in p53 level

B1: IL6: interleukin 6, anti-apoptotic agent in M1-t-p53 cells (protein, UniProt P08505 25-211, looked up)
Interleukin-6: FPTSQVRRGDFTEDTTPNRPVYTTSQVGGLITHVLWEIVEMRKELCNGNSDCMNNDDALAENNLKLPEIQRNDGCYQTGYNQEICLLKISSGLLEYHSYLEYMKNNLKDNKKDKARVLQRDTETLIHIFNQEVKDLHKIVLPTPISNALLTDKLESQKEWLRTKTIQFILKSLEEFLKVTLRSTRQT
p53 level (p53 [4]; [10]): did not cause a reduction in p53 level
